Blank lines part the entries; values can stand above or below the molecule they belong to.
Legend:
[1] = tested on: erythroid progenitor cells cultured from human cord blood; assay: Fetal globin expression in human cell cultures (3H-leucine labelled globin chains, densitometry); type: cell-based
Method: Compositions were tested for activity in inducing fetal globin expression and protein production in erythroid progenitor cells cultured from human cord blood and analyzed as described by S. P. Perrine et al. (Blood 74: 454-60, 1989). Briefly, mononuclear cells were cultured in IMDM with 30% fetal calf serum and 2 units erythropoietin per ml to induce erythroid differentiation. Colonies were harvested on day 12-13, incubated with radio-labelled (^3H) leucine, and further incubated in leucine-free media, still in the presence of compounds, overnight. Globin composition in the erythroid cells was analyzed by laser densitometry of electrophoretically separated globin chains stained with Coomassie blue, and by autoradiography. Treated cells were incubated for 12-13 days (Table 2, Experiments A and B) or overnight (Table 2, Experiment C) in the presence of the indicated compounds and compared to untreated control cells cultured from the same human subject.

[2] = tested on: human erythroid cell line K562; assay: Cell viability / growth of K562 by Calcein-AM fluorescence; type: cell-based; settings: 0.5 mM; over 3 days
Method: (§1) Such activities might limit their utility for treatment of anemias such as occur in thalassemia, but alternatively would be useful for anticancer effects. To determine cell viability, human erythroid cells were cultured in the presence and absence of these compounds for 4 days and the amount of DNA fragmentation which occurred was measured.
(§2) Cell viability analyses were performed using fluorescent staining to detect living cells. Cells were in log phase of growth in 6-well dishes when used in proliferation assays. For enumeration of living cells, wells were washed once with medium to remove nonadherent or dead cells. Remaining live cells were labeled with Calcein-AM for 20 minutes at 37° C. and washed once. Fluorescence intensity of adherent live cells was read on a CytoFluor 2300 Fluorescence Plate Scanner (Millipore; Bedford, Mass.) at excitation and emission wavelengths of 485 and 530 nm, respectively. The fluorescence intensity of a well was proportional to the number of living cells in the well. Background fluorescence was measured separately for each plate and subtracted from all readings. Each experiment was performed in triplicate or quadruplicate. The standard deviation (SD) of repetitive readings was less than 30% of the mean.
At higher concentrations, still easily achievable in vivo, arginine butyrate (0.5 mM) and dihydrocinnamic acid (greater than 0.5 mM) inhibited growth of this tumor cell line by approximately 50%. Therefore, these compounds are also useful as anti-tumor agents.

K562 cells = assay: Dose response, total and viable cells by trypan blue exclusion (FIG. 3); type: cell-based, human; settings: up to 2.0 mM, day 4
Method: FIG. 3 A FIG. 3E Cell viability as determined by the comparative numbers of total and viable K562 cells in the presence of increasing concentrations of (A) phenoxyacetic acid, (B) dihydrocinnamic acid, (C) butyric acid ethyl ester, (D) arginine butyrate, and (E) isobutyramide.
Dose response curves at dosages of up to 2.0 mM were also determined for phenoxyacetic acid (PAA; FIG. 3A), dihydrocinnamic acid (DHC; FIG. 3B), butyric acid ethyl ester (BAEE; FIG. 3C), arginine butyrate (AB; FIG. 3D) and isobutyramide (IBT; FIG. 3E). Cells were counted on day 4 of treatment and viable cells identified by trypan blue exclusion.

[3] = tested on: Human erythroleukemia cells; assay: Fetal globin mRNA in erythroleukemia cells by primer extension; type: cell-based; settings: 1.0 mM; 4 days
Method: Compounds were tested for increased expression of the human globin genes in human erythroid cells. In addition, as the cell line being tested is a tumor cell line, the assay determines if differentiation, a growth inhibitory effect on cancer cells, is induced by the compounds tested. Human erythroleukemia cells were cultured in RPMI media with 10% fetal calf serum alone or with treatment with various compounds for 4 days. Globin mRNA was quantitated by primer extension analysis. Fetal globin mRNA was compared to the amount of fetal globin mRNA produced in untreated cells during the same culture period. The quantitation was expressed as a percent of alpha globin mRNA which was constant. Results are expressed proportional to α-globin mRNA (Table 3).

[4] = tested on: erythroid cells (peripheral blood cells); assay: Erythroid cell viability by Calcein-AM fluorescent staining (FIG. 2); type: cell-based; settings: 0.5 mM
Method: as §2, with “Compositions were tested for the ability to directly stimulate erythroid cell growth. Cell growth stimulation is a useful property for an agent to be used to treat anemias and distinguishes such agents from the cytotoxic drugs currently being tested for treatment of hemoglobinopathies. Cell viability” for “Cell viability”, “labeled with 2 μM 2′,7′-bis-(carboxyethyl)-5-(and 6)-carboxy-fluorescein acetoxy-methyl ester (Calcein-AM) (Molecular Probes; Eugene, Oreg.) for 20” for “labeled with Calcein-AM for 20”, “intensity of live cells” for “intensity of adherent live cells”, “the mean. Results are depicted in FIG. 2.” for “the mean.”

human erythroid cells = assay: DNA fragmentation by flow cytometry (propidium iodide); type: cell-based; settings: for effect in DNA fragmentation assays: summary statement
Method: as §1
Flow cytometric determination of DNA profiles and DNA fragmentation were determined. Cytometric analysis was performed with a FACScan (Becton Dickenson Instruments; Columbia, Md.). The data analysis and display were performed using the Cell-Fit software program. Approximately 0.5×10^6 cells were washed twice with PBS and resuspended in 1 ml of 1% sodium citrate, 0.1% Triton X-100 and […] of propidium iodide/ml. Resulting permeabilized cells were kept in the dark at 4° C. overnight before DNA profile or DNA fragmentation analysis (Table 4).

anemic juvenile baboons = assay: In vivo reticulocyte proliferation and globin expression in phlebotomized anemic baboons; parameters: species or system baboon; settings: for fetal reticulocytes on treatment: 4 days, baseline 4%
Method: Experiments were performed to determine if administration of the chemical compositions could induce fetal globin gene expression in an in vivo model similar to humans (S. P. Perrin et al., Brit. J. Haematol. 88:555-61, 1994). Briefly, chemicals were prepared as sterile pharmaceutical solutions in pH adjusted sterile water. A variety of chemical compositions were administered sequentially to some baboons. After administration of one compound, a wash-out period with no compound administration was maintained until reticulocytes returned to base line prior to administration of the next compound. This was done, at least partly, to compare the magnitude of response which occurred within the same individual animal to different compounds.
Briefly, juvenile female baboons (2 years old) were catheterized with arterial and venous catheters and phlebotomized gradually every day to maintain a moderate anemia of 7.0 to 7.5 grams hemoglobin/dl. Fetal reticulocytes, the newly produced red blood cells containing fetal globin, were assayed using a monoclonal antibody against fetal globin (HbF) as described by G. Dover et al. (Blood 67:735-38, 1986). Briefly, blood was stained with two antibodies, one specific for reticulocytes and another against fetal globin protein. The amount of antibody bound cells was determined by FACS analysis. Globin chain synthesis was assayed as described by J. B. Clegg et al. (J. Mol. Biol. 19:91-108, 1966). Briefly, reticulocytes were radio-labeled with ^3H-leucine which was incorporated in equal proportions into actively synthesized globin chains. After incubation in leucine-free media, cells were washed, and globin proteins were separated and purified by column chromatography. Radioactivity incorporated into each peak is compared and the ratios of gamma to gamma plus beta globin calculated. Each animal served as its own control with baseline monitoring assays performed for 4-6 weeks before any drug was administered. Phlebotomy was continued daily, so that peripheral HbF levels in the animals were not considered to be accurate over the short treatment time-frames and were not monitored. Safety monitoring was performed by frequent physical examinations, quantitation of food eaten, activity and frequent chemistry and hematology monitoring. Complete blood counts were assayed before, during and after treatment. Results presented were not adjusted to account for the daily phlebotomy.

[5] = tested on: erythroblast culture from peripheral blood of patients with sickle cell anemia; assay: Induction of fetal globin in erythroblasts by steel factor; type: cell-based, human
Method: Peripheral blood was obtained from patients with sickle cell anemia. Mononuclear cells were isolated on Ficoll-Hypaque gradients. One culture was treated with 100 ng/ml steel factor for 13 days and compared with an untreated control. […] A second culture was incubated overnight with an identical dose of steel factor Plus ^3H-leucine. Amounts of labeled globin proteins synthesized in untreated (FIG. 5A) and steel factor treated (FIG. 5B) cells were determined by autoradiography and quantitated (scanned) by laser densitometry. […] The increase observed included both G-γ, and A-γ globin proteins.

[6] = tested on: system A transport in K562 cells and nucleated erythroblasts from fetal liver; assay: System A (neutral amino acid) transport, 3H-MAIB uptake; type: cell-based, human; settings: 1 hour incubation; FIG. 12
Method: Inhibition of nutrient uptake is undesirable for treatment of anemias. Methyl aminoisobutyric acid (MAIB) labeled with tritium (^3H) is normally taken up by system A amino acid transport. Cold (unlabeled) compounds were added to cultures containing ^3H-MAIB and incubated for 1 hour. Cells were harvested and the amount of ^3H taken up by cells was quantitated by scintillation counting.

[7] = tested on: Human mammary carcinoma cells (MCF-7); assay: Human mammary carcinoma cell viability by FACS; type: cell-based; settings: 1.0 mM; 4 days
Method: Human mammary carcinoma cells (MCF-7) were cultured alone (controls) and with arginine butyrate or isobutyramide for 4 days. Viability was assayed by FACS after incubation with a fluorescent dye taken up by viable cells (FIG. 6). Growth was decreased by 50% with isobutyramide at 1.0 mM, about 60% with arginine butyrate at 0.5 mM, and greater than 90% with arginine butyrate at 1.0 mM.

[8] = tested on: patient with thalassemia intermedia; assay: Isobutyramide treatment of a patient with thalassemia, blood counts and hemoglobin; type: in vivo, human; settings: 50 mg/kg 3 days/week
Method: This patient received isobutyramide at 50 mg/kg for 3 days/week over the course of the study.

[9] = 1.0 mM to 2.0 mM, untreated cells 26%
[10] = 2.0 mM, 4 days, controls 26%, 22%
[11] = 25 and 100 μg/kg subcutaneously

Molecule: CCCC(=O)OCC [BAEE, butyric acid ethyl ester]
- Gamma Increase ([1]; Exp. A, 0.1 mM, 12-13 days, above untreated cells): 13.0%
- Gamma Increase ([1]; Exp. B, 0.2 mM, 12-13 days): 8.5%
- Gamma Increase ([1]; Exp. C, 0.1 mM, overnight): 12.5%
- growth of K562 [2]: either did not inhibit, or slightly enhanced growth
- proliferation (dose response, FIG. 3) (K562 cells): did not significantly inhibit proliferation
- induction of fetal globin mRNA in human cells [3]: significantly increased
- erythroid cell growth and proliferation compared to untreated controls (FIG. 2) [4]: either had no effect or stimulated erythroid cell growth and proliferation
- Degraded DNA (human erythroid cells; [9]): 13.8%
- Degraded DNA (human erythroid cells; [10]): 13.8%
- effect in DNA fragmentation assays (human erythroid cells): reduce DNA fragmentation
- increase of fetal reticulocytes above basal levels (anemic juvenile baboons; intravenous 3 days, 500 to 1,000 mg/kg per day): over 1,100%
- increase of fetal reticulocytes (anemic juvenile baboons; intravenous 3 days, 500 to 1,000 mg/kg per day (FIG. 11)): 11.3 fold

Molecule: steel factor: hematopoietic factor, also referred to as kit ligand, mast cell growth factor and stem cell factor
- gamma globin expression after treatment ([5]; 100 ng/ml overnight plus 3H-leucine, increased from 17.6%): 43.3%
- gamma globin expression in BFU-e cells after treatment ([5]; 100 ng/ml, 13 days, increased from 14%): 23.3%
- Gamma globin expression, mean increase ([5]; 100 ng/ml, 13 days, versus untreated control): 16.1%
- rise in numbers of newly-formed blood cells producing fetal globin (anemic juvenile baboons; [11]): 300-500%
- rise of fetal globin chain protein (anemic juvenile baboons; [11]): 3 fold
- total increase of gamma globin expression in the bone marrow (anemic juvenile baboons; [11]): 9 fold
- fetal globin chain protein after treatment (anemic juvenile baboons; 25 and 100 μg/kg subcutaneously, undetectable before treatment): about 3 % of total non-alpha globin
- fetal reticulocytes on treatment (anemic juvenile baboons; first dose regimen: 25 μg/kg subcutaneously once daily): 15%
- fetal reticulocytes on treatment (anemic juvenile baboons; second dose regimen: 100 μg/kg subcutaneously): 12%

- Degraded DNA (human erythroid cells; [9]): 44%
- Degraded DNA (human erythroid cells; [10]): 34%
Molecule: CC(C)C(N)=O [IBT, isobutyramide]
- system A transport of amino acids (3H-MAIB uptake) [6]: inhibited the neutral amino acid transport mechanism
- erythroid cell growth and proliferation compared to untreated controls (FIG. 2) [4]: either had no effect or stimulated erythroid cell growth and proliferation
- effect in DNA fragmentation assays (human erythroid cells): decrease cell viability
- decrease of growth of MCF-7 [7]: 50%
- fetal globin (HbF) ([8]; four month study period): lack of increased fetal globin
- rise of hematocrit (Hct) ([8]; four month study period): 5.8%
- rise of hemoglobin (Hgb) ([8]; four month study period): 1.6 g/dL
- rise of reticulocytes (Retics) ([8]; four month study period): about 50%
- rise of total red blood cells (RBC) ([8]; four month study period): ~1e+06 cells/µL
- Hemoglobin-A1 and hemoglobin-A2 levels ([8]; throughout the study): approximately constant
- Retics ([8]; Day 8): 2.5 ×10^6 cells
- HbF ([8]; Day 22): 0.4
- Retics ([8]; Day 22): 2.0 ×10^6 cells
- Hgb-A2 ([8]; Day 29): 7.0
- Retics ([8]; Day 29): 2.0 ×10^6 cells
- HbF ([8]; Day 36): 0.4
- Retics ([8]; Day 43): 2.0 ×10^6 cells
- RBC ([8]; Day 96, 50 mg/kg): 7.3e+06 cells/µL

From patent US7910624B1, “Compositions for the treatment of blood disorders” (The Trustees of Boston University, priority 1995, dated 2011)
